The values that follow come from patent US8367647B2, “Treatment of meconium aspiration syndrome with estrogens” (Pantarhei Bioscience B.V., priority 2007, dated 2013).

This test has as its system newborn piglets. The experiment in a line: Meconium aspiration model: newborn piglets given human meconium by deep intratracheal instillation, monitored 7 days. The format is in vivo. The note with it: 3 ml/kg of 20% human meconium intratracheal, daily oral dosage of 0.7 mg/kg started within one hour after birth, versus placebo. The method, then: Immediately after birth, twelve newborn piglets are given 3 ml/kg of a 20% solution of human meconium by deep intratracheal instillation. Next, the piglets are randomly assigned to two groups of each six animals. Within one hour after birth, one group is treated with a daily oral dosage of 0.7 mg/kg estetrol whilst the control group is treated with placebo. During the next 7 days the condition of the piglets belonging to both groups are monitored. […] Example 1 was repeated, except that this time one group was treated with a daily oral dosage of 30 μg/kg estradiol instead of estetrol.

Take `C[C@]12CC[C@@H]3c4ccc(O)cc4CC[C@H]3[C@@H]1[C@@H](O)[C@@H](O)[C@@H]2O` [estetrol]: the “incidence of severe complications of MAS versus control group” value is “substantially lower”.
